Test results from US9249110B2, “Substituted quinoxalines as B-raf kinase inhibitors” (NEUPHARMA, INC., priority 2011, dated 2016).

Assays:
A375 cells = experiment: Inhibition of cancer cell growth, MTT assay, A375 cells; assay type: cell-based; conditions: Homo sapiens, A-375, 72 h compound exposure
Experimental: (§1) Inhibition of cell growth by compounds was measured using MTT assay (Mosmann, T., Journal of Immunological Methods, 1983, 65, 55-63). Tumor cell lines were purchased from ATCC (American Type Culture Collection, Manassas, Va.). All cell lines were maintained in RPMI 1640 (Hyclone) supplemented with 10% fetal bovine serum (FBS, Hyclone), glutamine (2 mM, Hyclone), and antibiotics (penicillin 100 U/mL and streptomycin 50 μg/mL) at 37° C. in a humidified atmosphere of 5% CO2 in air. Taxol (as a positive control, Sigma) and compounds were dissolved in DMSO (Sigma), and the final concentration of DMSO in the medium was 1%. Tumor cells were plated in 96-well plates at densities of about 4000 cells/well of a 96-well plate and allowed to adhere/grow for 24 h. They were then treated with various concentrations of drug for 72 h. 3-(4,5-Dimethylthiazol-2-yl)-2,5-diphenyltetrazolium bromide (MTT, Sigma) was used to determine the number of viable cells at the time of compound addition and the number of cells remaining after 72 h compound exposure. The number of cells remaining after 72 h was compared to the number of viable cells at the time of compound addition by measuring the absorbance at 570 nm, allowing for the calculation of growth inhibition.
(§2) All concentrations of compounds were tested in triplicate and controls were averaged over 4 wells. IC50 was calculated by plotting the concentration of compound vs the percentage of inhibition in treated wells using GraphPad Prism 5. […] The scale utilized in Table 4 is as follows: +++ less than 1000 nM, ++ between 1000 and 5000 nM, and + greater than 5000 nM.

BRAF V600E = biological target: T1, BRAF V600E (Homo sapiens, UniProt P15056, V600E); experiment: Z′-LYTE kinase inhibition assay against BRAF V600E (Invitrogen); assay type: biochemical; conditions: 1 μM compound, Z′-LYTE method
T1 construct: purchased Invitrogen
T1 sequence (P15056 whole entry V600E): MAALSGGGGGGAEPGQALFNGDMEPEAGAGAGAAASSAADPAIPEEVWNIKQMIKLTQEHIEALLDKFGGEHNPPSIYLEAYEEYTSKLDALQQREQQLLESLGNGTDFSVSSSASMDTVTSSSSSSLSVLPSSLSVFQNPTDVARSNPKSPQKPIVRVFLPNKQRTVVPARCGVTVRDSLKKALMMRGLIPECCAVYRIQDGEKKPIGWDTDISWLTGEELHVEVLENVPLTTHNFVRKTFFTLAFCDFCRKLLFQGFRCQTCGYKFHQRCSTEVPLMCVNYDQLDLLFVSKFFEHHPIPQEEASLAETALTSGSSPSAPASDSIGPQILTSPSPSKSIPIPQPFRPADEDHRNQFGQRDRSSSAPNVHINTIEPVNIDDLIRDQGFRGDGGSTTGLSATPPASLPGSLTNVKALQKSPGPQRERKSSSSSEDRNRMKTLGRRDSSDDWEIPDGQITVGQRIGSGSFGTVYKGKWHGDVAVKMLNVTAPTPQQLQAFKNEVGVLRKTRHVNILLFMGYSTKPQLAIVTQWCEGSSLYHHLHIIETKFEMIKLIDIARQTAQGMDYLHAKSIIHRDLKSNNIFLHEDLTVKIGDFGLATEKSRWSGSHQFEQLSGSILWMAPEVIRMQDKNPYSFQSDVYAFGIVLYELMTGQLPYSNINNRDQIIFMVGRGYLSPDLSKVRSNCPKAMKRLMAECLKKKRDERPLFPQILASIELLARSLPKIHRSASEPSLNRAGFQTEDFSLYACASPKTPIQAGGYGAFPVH
Experimental: (§3) Inhibitory activities of compounds against BRAF or BRAF V600E were measured by Invitrogen using Z′-LYTE® Method as briefly described in the following.
(§4) 4× Test compounds are dissolved in 1% DMSO. […] ATP solutions are diluted to a 4×ATP working concentration in Kinase Buffer (50 mM HEPES pH 7.5, 0.01% BRIJ-35, 10 mM MgCl2, 1 mM EGTA).
(§5) Reaction starts by 30-second shaking of mixture consisting of 2.5 μL4× test compound, […] and 2.5 μL 4×ATP Solution on Bar-coded Corning, low volume NBS, black 384-well plate (Corning Cat. #3676). Then the mixture is incubated for 60-minute at room temperature for the kinase reaction, followed by addition of 5 μL of a 1:1024 dilution of development reagent A and 30-second plate shake. The mixture is then incubated for another 60-minute at room temperature for development reaction. Finally fluorescence is read by plate reader.

A549 cells = experiment: Inhibition of cancer cell growth, MTT assay, A549 cells; assay type: cell-based; conditions: Homo sapiens, 72 h compound exposure
Experimental: as §1, §2

BRAF = biological target: T2, BRAF (Homo sapiens, UniProt P15056); experiment: Z′-LYTE kinase inhibition assay against BRAF (Invitrogen); assay type: biochemical; conditions: 1 μM compound, Z′-LYTE method
T2 construct: purchased Invitrogen
T2 sequence (P15056 whole entry): as the sequence (P15056 whole entry V600E) above, with E600V counted along it
Experimental: as §3, §4, §5

KDR (VEGFR2) = biological target: T3, KDR (VEGFR2) (Homo sapiens, UniProt P35968); experiment: Z′-LYTE kinase inhibition assay against KDR (Invitrogen); assay type: biochemical; conditions: 1 μM compound, Z′-LYTE method
T3 construct: purchased Invitrogen
T3 sequence (P35968 20-1356): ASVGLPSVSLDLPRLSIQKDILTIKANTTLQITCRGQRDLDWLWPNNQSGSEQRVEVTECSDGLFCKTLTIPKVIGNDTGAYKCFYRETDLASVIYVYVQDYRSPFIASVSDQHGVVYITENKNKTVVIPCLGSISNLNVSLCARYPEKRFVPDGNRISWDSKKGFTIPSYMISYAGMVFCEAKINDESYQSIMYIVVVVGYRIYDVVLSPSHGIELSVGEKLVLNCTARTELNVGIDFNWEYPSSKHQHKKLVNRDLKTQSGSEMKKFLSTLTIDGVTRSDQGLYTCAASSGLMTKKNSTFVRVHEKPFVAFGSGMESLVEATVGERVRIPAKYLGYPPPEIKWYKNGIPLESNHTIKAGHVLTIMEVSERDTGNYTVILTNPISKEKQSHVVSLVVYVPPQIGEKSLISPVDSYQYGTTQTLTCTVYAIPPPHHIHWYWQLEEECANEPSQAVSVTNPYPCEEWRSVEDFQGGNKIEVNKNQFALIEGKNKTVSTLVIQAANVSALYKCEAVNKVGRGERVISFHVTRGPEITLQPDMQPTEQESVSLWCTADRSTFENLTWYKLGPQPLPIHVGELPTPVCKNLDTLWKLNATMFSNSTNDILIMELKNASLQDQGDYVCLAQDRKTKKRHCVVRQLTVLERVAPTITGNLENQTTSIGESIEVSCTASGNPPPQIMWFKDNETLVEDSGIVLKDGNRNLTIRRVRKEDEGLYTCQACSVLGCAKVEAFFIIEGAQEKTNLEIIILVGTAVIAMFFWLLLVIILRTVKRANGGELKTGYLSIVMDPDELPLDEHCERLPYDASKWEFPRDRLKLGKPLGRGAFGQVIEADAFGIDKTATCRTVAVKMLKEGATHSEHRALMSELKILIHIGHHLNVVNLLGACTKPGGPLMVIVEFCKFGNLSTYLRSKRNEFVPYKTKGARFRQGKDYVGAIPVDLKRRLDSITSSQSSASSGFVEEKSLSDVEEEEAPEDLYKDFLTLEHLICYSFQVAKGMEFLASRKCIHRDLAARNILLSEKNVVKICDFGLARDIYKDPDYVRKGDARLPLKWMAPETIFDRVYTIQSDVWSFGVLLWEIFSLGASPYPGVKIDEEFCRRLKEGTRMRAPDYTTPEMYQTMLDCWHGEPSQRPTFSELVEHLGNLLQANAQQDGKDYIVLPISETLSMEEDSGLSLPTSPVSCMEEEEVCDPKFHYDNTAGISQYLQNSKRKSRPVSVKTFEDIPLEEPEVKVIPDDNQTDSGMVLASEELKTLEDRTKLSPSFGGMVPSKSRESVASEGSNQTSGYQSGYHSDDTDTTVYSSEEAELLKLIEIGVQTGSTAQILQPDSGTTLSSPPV
Experimental: Inhibitory activities of compounds against KDR (VEGFR2) were also measured by Invitrogen using Z′-LYTE® Method as described above with the following modification. The 2×KDR (VEGFR2)/Tyr 01 mixture is prepared in 50 mM HEPES pH 7.5, 0.01% BRIJ-35, 10 mM MgCl2, 1 mM EGTA. The final 10 μL Kinase Reaction consists of 0.5-11.7 ng KDR (VEGFR2) and 2 μM Tyr 01 in 50 mM HEPES pH 7.5, 0.01% BRIJ-35, 10 mM MgCl2, 1 mM EGTA. After the 1 hour Kinase Reaction incubation, 5 μL of a 1:256 dilution of Development Reagent B is added. […] The scale utilized in Table 3 is as follows: ++ more than 70% inhibition and + less than 70% inhibition.

| Structure (SMILES) | IC50 (A375 cells) [µM] | inhibition at 1 µM (BRAF V600E) [%] | IC50 (A549 cells) [µM] | inhibition at 1 µM (BRAF) [%] | inhibition at 1 µM (KDR (VEGFR2)) [%] |
| --- | --- | --- | --- | --- | --- |
| CCCS(=O)(=O)Nc1ccc(F)c(C(=O)c2ccc3ncc(N4CCOCC4)nc3c2)c1F [Compound C05, N-(2,4-difluoro-3-(3-morpholinoquinoxaline-6-carbonyl)phenyl)propane-1-sulfonamide] | 1 to 5 | – | – | – | – |
| CCCS(=O)(=O)Nc1ccc(F)c(C(=O)c2ccc3ncc(C#N)nc3c2)c1F [Compound C04, N-(3-(3-cyanoquinoxaline-6-carbonyl)-2,4-difluorophenyl)propane-1-sulfonamide] | < 1 | > 89 | < 1 | 70 to 89 | – |
| O=C(Nc1ccc(F)c(C(=O)c2ccc3nccnc3c2)c1F)c1cccc(C(F)(F)F)c1 [Compound C10, N-(2,4-difluoro-3-(quinoxaline-6-carbonyl)phenyl)-3-(trifluoromethyl)benzamide] | > 5 | 70 to 89 | > 5 | – | > 70 |
| CCCS(=O)(=O)Nc1ccc(F)c(C(=O)c2ccc3ncc(-c4ccc(Cl)cc4)nc3c2)c1F [Compound C02, N-(3-(3-(4-chlorophenyl)quinoxaline-6-carbonyl)-2,4-difluorophenyl)propane-1-sulfonamide] | < 1 | > 89 | < 1 | 70 to 89 | – |
| CCCS(=O)(=O)Nc1ccc(F)c(C(=O)c2ccc3ncc(OC)nc3c2)c1F [Compound C03, N-(2,4-difluoro-3-(3-methoxyquinoxaline-6-carbonyl)phenyl)propane-1-sulfonamide] | 1 to 5 | > 89 | 1 to 5 | 70 to 89 | – |
| CCCS(=O)(=O)Nc1ccc(F)c(C(=O)c2ccc3nccnc3c2)c1F [Compound C01, N-(2,4-difluoro-3-(quinoxaline-6-carbonyl)phenyl)propane-1-sulfonamide] | < 1 | > 89 | < 1 | 70 to 89 | – |
| O=C(Nc1ccc(Cl)c(C(F)(F)F)c1)Nc1ccc(F)c(C(=O)c2ccc3nccnc3c2)c1F [Compound C08, 1-(4-chloro-3-(trifluoromethyl)phenyl)-3-(2,4-difluoro-3-(quinoxaline-6-carbonyl)phenyl)urea] | 1 to 5 | < 70 | > 5 | – | < 70 |
| O=C(Nc1cccc(F)c1)Nc1ccc(F)c(C(=O)c2ccc3nccnc3c2)c1F [Compound C07, 1-(2,4-difluoro-3-(quinoxaline-6-carbonyl)phenyl)-3-(3-fluorophenyl)urea] | > 5 | 70 to 89 | 1 to 5 | – | < 70 |
| O=C(Nc1cccc(C(F)(F)F)c1)Nc1ccc(F)c(C(=O)c2ccc3nccnc3c2)c1F [Compound C06, 1-(2,4-difluoro-3-(quinoxaline-6-carbonyl)phenyl)-3-(3-(trifluoromethyl)phenyl)urea] | > 5 | 70 to 89 | > 5 | – | < 70 |
| O=C(Nc1ccc(F)c(C(=O)c2ccc3nccnc3c2)c1F)c1cccc(F)c1 [Compound C09, N-(2,4-difluoro-3-(quinoxaline-6-carbonyl)phenyl)-3-fluorobenzamide] | > 5 | 70 to 89 | > 5 | – | – |
